Molecular target: T1, human GLP-1R receptor (Homo sapiens, UniProt P43220)
T1 construct: expressed in transfected cells
Experiment: GLP-1R low expression cell assay (cAMP TR-FRET, CHO-K1_hGLP-1Rlow_clone10 cells)
Assay type: cell-based
Conditions: for EC50: cAMP TR-FRET, 30 min at 25° C.; for Emax: maximum activation relative to control GLP-1 peptide agonist
In short: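 Readout is cAMP TR-FRET after 30 min compound stimulation at 25 °C of a low-GLP-1R-expressing CHO-K1 clone (1,000 cells/well), with 10-point 3-fold serial dilutions. Percent activation versus a control GLP-1 peptide, from duplicates, was Hill-fitted to give EC50.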

T1 sequence (P43220 24-463): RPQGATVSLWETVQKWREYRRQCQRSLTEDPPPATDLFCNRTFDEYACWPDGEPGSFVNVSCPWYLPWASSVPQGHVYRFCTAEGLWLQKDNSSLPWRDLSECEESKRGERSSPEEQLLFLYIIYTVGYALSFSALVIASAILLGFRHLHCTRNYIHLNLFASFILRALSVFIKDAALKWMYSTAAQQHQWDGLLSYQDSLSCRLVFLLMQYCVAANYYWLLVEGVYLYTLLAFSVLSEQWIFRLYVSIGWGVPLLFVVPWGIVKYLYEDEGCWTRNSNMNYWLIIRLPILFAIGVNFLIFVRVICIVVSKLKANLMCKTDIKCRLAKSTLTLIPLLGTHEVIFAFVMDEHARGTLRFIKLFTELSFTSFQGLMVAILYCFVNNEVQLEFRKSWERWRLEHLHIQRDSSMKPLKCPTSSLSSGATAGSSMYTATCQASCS

Compound	EC50	Emax
Cn1c(CN2CCC(c3c(F)cccc3OCc3ccc(C#N)cc3F)CC2)nc2c(OC(F)F)cc(C(=O)O)cc21 [Compound 146, 2-((4-(2-((4-Cyano-2-fluorobenzyl)oxy)-6-fluorophenyl)piperidin-1-yl)methyl)-4-(difluoromethoxy)-1-methyl-1H-benzo[d]imidazole-6-carboxylic acid]	> 1000 nM	50 to 85%
C[C@H](F)Oc1cc(C(=O)O)cc2c1nc(CN1CCC(c3cccc(OCc4ccc(C#N)cc4F)n3)CC1)n2C [Compound 313, (S)-2-((4-(6-((4-Cyano-2-fluorobenzyl)oxy)pyridin-2-yl)piperidin-1-yl)methyl)-4-(1-fluoroethoxy)-1-methyl-1H-benzo[d]imidazole-6-carboxylic acid]	10 to 100 nM	> 85%
N#Cc1ccc(COc2cccc(C3CCN(Cc4nc5c6c(c(C(=O)O)cc5n4C[C@@H]4CCO4)OCCO6)CC3)n2)c(F)c1 [Compound 100, (S)-2-((4-(6-((4-Cyano-2-fluorobenzyl)oxy)pyridin-2-yl)piperidin-1-yl)methyl)-3-(oxetan-2-ylmethyl)-7,8-dihydro-3H-[1,4]dioxino[2′,3′:3,4]benzo[1,2-d]imidazole-5-carboxylic acid]	< 10 nM	> 85%
N#Cc1ccc(COc2cccc(C3CCN(Cc4nc5c(OC(F)F)cc(C(=O)O)cc5n4C[C@@H]4CCS4(=O)=O)CC3)n2)c(F)c1 [Compound 110, (S)-2-((4-(6-((4-Cyano-2-fluorobenzyl)oxy)pyridin-2-yl)piperidin-1-yl)methyl)-4-(difluoromethoxy)-1-((1,1-dioxidothietan-2-yl)methyl)-1H-benzo[d]imidazole-6-carboxylic acid]	< 10 nM	> 85%
Cn1c(CN2CCC(c3cccc4c3O[C@@H](c3ccc(C#N)cc3F)CO4)CC2)nc2c(OC(F)F)cc(C(=O)O)cc21 [Compound 123, (S)-2-((4-(3-(4-Cyano-2-fluorophenyl)-2,3-dihydrobenzo[b][1,4]dioxin-5-yl)piperidin-1-yl)methyl)-4-(difluoromethoxy)-1-methyl-1H-benzo[d]imidazole-6-carboxylic acid]	10 to 100 nM	> 85%
COc1cc(C#N)ncc1COc1cccc(C2CCN(Cc3nc4c(OC(F)F)cc(C(=O)O)cc4n3C)CC2)n1 [Compound 354]	10 to 100 nM	> 85%
CCOc1cc(C(=O)O)cc2c1nc(Cc1ccc(-c3cccc(OCc4ccc(C#N)cc4F)n3)cc1F)n2C [Compound 293, 2-(4-(6-((4-Cyano-2-fluorobenzyl)oxy)pyridin-2-yl)-2-fluorobenzyl)-4-ethoxy-1-methyl-1H-benzo[d]imidazole-6-carboxylic acid]	< 10 nM	> 85%
COc1c(F)c(C(=O)O)cc2nc(CN3CCC(c4cccc(OCc5ccc(C#N)cc5F)n4)CC3)n(C)c12 [Compound 336, 2-((4-(6-((4-Cyano-2-fluorobenzyl)oxy)pyridin-2-yl)piperidin-1-yl)methyl)-6-fluoro-7-methoxy-1-methyl-1H-benzo[d]imidazole-5-carboxylic acid]	> 1000 nM	< 25%
COCCc1nc(C(=O)O)cc2c1nc(CN1CCC(c3cccc(OCc4ccc(C#N)cc4F)n3)CC1)n2C [Compound 107, 2-((4-(6-((4-cyano-2-fluorobenzyl)oxy)pyridin-2-yl)piperidin-1-yl)methyl)-4-(2-methoxyethyl)-1-methyl-1H-imidazo[4,5-c]pyridine-6-carboxylic acid]	> 1000 nM	50 to 85%
Cn1c(CN2CCC(c3ccnnc3OCc3ccc(Cl)cc3F)CC2)nc2c(OC(F)F)cc(C(=O)O)cc21 [Compound 355, 2-((4-(3-((4-Chloro-2-fluorobenzyl)oxy)pyridazin-4-yl)piperidin-1-yl)methyl)-4-(difluoromethoxy)-1-methyl-1H-benzo[d]imidazole-6-carboxylic acid]	100 to 1000 nM	> 85%
C[C@@H](F)Oc1cc(C(=O)O)cc2c1nc(CN1CCC(c3cccc(OCc4ccc(Cl)cc4F)n3)CC1)n2C (single isomer, unassigned) [Compound 361]	10 to 100 nM	> 85%
Cn1c(CN2CCC(c3cccc(OCc4ccc(Cl)cc4F)n3)CC2)nc2c(OCC3(C#N)CC3)cc(C(=O)O)cc21 [Compound 214, 2-((4-(6-((4-Chloro-2-fluorobenzyl)oxy)pyridin-2-yl)piperidin-1-yl)methyl)-4-((1-cyanocyclopropyl)methoxy)-1-methyl-1H-benzo[d]imidazole-6-carboxylic acid]	100 to 1000 nM	50 to 85%
CN1C(=O)[C@@H](c2ccc(Cl)cc2F)Oc2c(C3CCN(Cc4nc5c(OC(F)F)cc(C(=O)O)cc5n4C)CC3)cccc21 [Compound 240, (R)-2-((4-(2-(4-chloro-2-fluorophenyl)-4-methyl-3-oxo-3,4-dihydro-2H-benzo[b][1,4]oxazin-8-yl)piperidin-1-yl)methyl)-4-(difluoromethoxy)-1-methyl-1H-benzo[d]imidazole-6-carboxylic acid]	> 1000 nM	< 25%
Cn1c(CN2CCC(c3cccc(OCc4ccc(Cl)cc4)n3)CC2)nc2c(OC(F)F)cc(C(=O)O)cc21 [Compound 252, 2-((4-(6-((4-Chlorobenzyl)oxy)pyridin-2-yl)piperidin-1-yl)methyl)-4-(difluoromethoxy)-1-methyl-1H-benzo[d]imidazole-6-carboxylic acid]	10 to 100 nM	
Cn1c(CN2CCC(c3cccc(F)c3OCc3ccc(C#N)cc3F)CC2)nc2c(OC(F)F)cc(C(=O)O)cc21 [Compound 182, 2-((4-(2-((4-Cyano-2-fluorobenzyl)oxy)-3-fluorophenyl)piperidin-1-yl)methyl)-4-(difluoromethoxy)-1-methyl-1H-benzo[d]imidazole-6-carboxylic acid]	100 to 1000 nM	> 85%
Cn1c(CN2CCC(c3cccc(OCc4ccc(C5CCCO5)cc4F)n3)CC2)nc2c(OC(F)F)cc(C(=O)O)cc21 (stereo not drawn) [Compound 177, 4-(Difluoromethoxy)-2-((4-(6-((2-fluoro-4-(tetrahydrofuran-2-yl)benzyl)oxy)pyridin-2-yl)piperidin-1-yl)methyl)-1-methyl-1H-benzo[d]imidazole-6-carboxylic acid]	> 1000 nM	50 to 85%
Cn1c(CN2CCC(c3cccc(OCc4ccc(Cl)cc4F)n3)CC2)nc2ccc(C(=O)O)c(O)c21 [Compound 341, 2-((4-(6-((4-Chloro-2-fluorobenzyl)oxy)pyridin-2-yl)piperidin-1-yl)methyl)-7-hydroxy-1-methyl-1H-benzo[d]imidazole-6-carboxylic acid]	100 to 1000 nM	> 85%
Cn1c(CN2CCC(c3cccc(OCc4ccc(OC(F)F)cc4F)n3)CC2)nc2c(OC(F)F)cc(C(=O)O)cc21 [Compound 221, 4-(Difluoromethoxy)-2-((4-(6-((4-(difluoromethoxy)-2-fluorobenzyl)oxy)pyridin-2-yl)piperidin-1-yl)methyl)-1-methyl-1H-benzo[d]imidazole-6-carboxylic acid]	10 to 100 nM	> 85%
COc1cc(C(=O)O)cc2c1nc(CN1CCC(c3cccc(OCc4ccc(Cl)cc4F)n3)CC1)n2CF [Compound 209, 2-((4-(6-((4-Chloro-2-fluorobenzyl)oxy)pyridin-2-yl)piperidin-1-yl)methyl)-1-(fluoromethyl)-4-methoxy-1H-benzo[d]imidazole-6-carboxylic acid]	10 to 100 nM	> 85%
[2H]C([2H])(Oc1cccc(C2CCN(C([2H])([2H])c3nc4c(OC(F)F)cc(C(=O)O)cc4n3C)CC2)n1)c1ccc(Cl)cc1F [Compound 321, 2-((4-(6-((4-Chloro-2-fluorophenyl)methoxy-d2)pyridin-2-yl)piperidin-1-yl)methyl-d2)-4-(difluoromethoxy)-1-methyl-1H-benzo[d]imidazole-6-carboxylic acid]	10 to 100 nM	> 85%
CC(CF)Oc1cc(C(=O)O)cc2c1nc(CN1CCC(c3cccc(OCc4ccc(Cl)cc4F)n3)CC1)n2C (single isomer, unassigned) [Compound 262]	10 to 100 nM	> 85%
COc1cc(C(=O)O)cc2c1nc(CN1CCC(c3cccc4c3O[C@@H](c3ccc(C#N)cc3F)CO4)CC1)n2C [Compound 314, (S)-2-((4-(3-(4-Cyano-2-fluorophenyl)-2,3-dihydrobenzo[b][1,4]dioxin-5-yl)piperidin-1-yl)methyl)-4-methoxy-1-methyl-1H-benzo[d]imidazole-6-carboxylic acid]	> 1000 nM	25 to 50%
COc1cc(C(=O)O)nc2c1nc(CN1CCC(c3cccc(OCc4ccc(C#N)cc4F)n3)CC1)n2C [Compound 323, 2-((4-(6-((4-Cyano-2-fluorobenzyl)oxy)pyridin-2-yl)piperidin-1-yl)methyl)-7-methoxy-3-methyl-3H-imidazo[4,5-b] pyridine-5-carboxylic acid]	10 to 100 nM	> 85%
COc1ccc(C2CCN(Cc3nc4c(OC(F)F)cc(C(=O)O)cc4n3C)CC2)cc1OCc1ccc(Cl)cc1F [Compound 230, 2-((4-(3-((4-Chloro-2-fluorobenzyl)oxy)-4-methoxyphenyl)piperidin-1-yl)methyl)-4-(difluoromethoxy)-1-methyl-1H-benzo[d]imidazole-6-carboxylic acid]	> 1000 nM	< 25%
Cn1c(CN2CCC(c3ncccc3OCc3ccc(C#N)cc3F)CC2)nc2c(OC(F)F)cc(C(=O)O)cc21 [Compound 158, 2-((4-(3-((4-Cyano-2-fluorobenzyl)oxy)pyridin-2-yl)piperidin-1-yl)methyl)-4-(difluoromethoxy)-1-methyl-1H-benzo[d]imidazole-6-carboxylic acid]	> 1000 nM	50 to 85%
Cn1c(CN2CCC(c3cccc(OCc4ccc(Cl)cc4F)n3)CC2)nc2c(O[C@H]3C[C@@H](F)C3)cc(C(=O)O)cc21 [Compound 379, 2-((4-(6-((4-Chloro-2-fluorobenzyl)oxy)pyridin-2-yl)piperidin-1-yl)methyl)-4-((1s,3s)-3-fluorocyclobutoxy)-1-methyl-1H-benzo[d]imidazole-6-carboxylic acid]	10 to 100 nM	> 85%

Source: patent US20240368120A1 (Terns Pharmaceuticals, Inc., priority 2023, published 2024)
